Laboratory results from patent US9029396B2, “Substituted indole derivatives” (Novartis AG, priority 2011, dated 2015).
In brackets after ≈: the same amount, converted by molar mass.

What was measured:
[1] = Solubility in simulated gastric and intestinal fluids; type: physicochemical; conditions: Free Form
Text: Solubility of compound Example No. 1 in simulated gastric and in simulated intestinal fluids at room temperature
Solubility of compound Example No. 3 (free form/acetate salt form) in simulated gastric fluids: […]

PKC-alpha = molecular target: T1, PKC-alpha (Homo sapiens, UniProt P17252); experiment: Protein kinase C alpha assay (Caliper mobility shift); type: biochemical; conditions: full length human recombinant enzyme, 17 μM ATP; read-out: PKCα (IC50 in nM)
T1 construct: Both enzymes were full length human recombinant protein expressed in insect cells; purchased Invitrogen AG, Basel, Switzerland; host or cells: insect cells
Method: (§1) The compounds of the invention were tested for their activity on different PKC isotypes according to the following method. All assays were performed in 384 well microtiter plates. Each assay plate contained 8-point serial dilutions for 40 test compounds, as well as two 16-point serial dilutions of staurosporine as reference compound, plus 16 high- and 16 low controls. Liquid handling and incubation steps were done on a automated workstation equipped with a Innovadyne Nanodrop Express.
(§2) The assay plates were prepared by addition of 50 nL per well of compound solution in 90% DMSO. The kinase reactions were started by stepwise addition of 4.5 μl per well of a 2× peptide/ATP-solution and 4.5 μl per well of a 2× enzyme solution. The final concentration of reagents during kinase reaction were: 50 mM HEPES, pH 7.5, 1 mM DTT, 0.02% Tween20, 0.02% BSA, 0.6% DMSO, 10 mM beta-glycerophosphate, and 10 μM sodium orthovanadate. The peptide substrate used in the PKC-alpha and PKC-theta assays was Dy495-X5-ME-Mpr-RFARKGSLRQKNV-COOH. […]
(§3) Plates with terminated kinase reactions were transferred to the Caliper LC3000 workstations for reading. Phosphorylated and unphosphorylated peptides were separated using the Caliper microfluidic mobility shift technology and Kinase activities were calculated from the amounts of formed phospho-peptide.

[2] = Dog pharmacokinetics after oral administration of compound of example No. 3 (mono acetate salt); type: in vivo, Beagle dogs; conditions: blood
Method: Compound of Example No. 3 was administered orally as the mono acetate salt in a hard gelatine capsule to 6 fasted male Beagle dogs. A nominal dose of 100 mg/dog was given, resulting in dose of 8.9-11.3 mg/kg (weight of the dogs ranging from 8.9-11.3 kg). Blood was taken by venipuncture, and sampling was performed up to 32 h. Bioanalytic determination was performed for 3 and is tabulated below:
Key pharmacokinetic parameters (mean values or range) for compound No. 3 after oral dosing as described above.

PKC-theta = molecular target: T2, PKC-theta (Homo sapiens, UniProt Q04759); experiment: Protein kinase C theta assay (Caliper mobility shift); type: biochemical; conditions: full length human recombinant enzyme, 70 μM ATP; read-out: PKCθ (IC50 in nM)
T2 construct: Both enzymes were full length human recombinant protein expressed in insect cells; purchased Invitrogen AG, Basel, Switzerland; host or cells: insect cells
T2 sequence (Q04759 whole entry): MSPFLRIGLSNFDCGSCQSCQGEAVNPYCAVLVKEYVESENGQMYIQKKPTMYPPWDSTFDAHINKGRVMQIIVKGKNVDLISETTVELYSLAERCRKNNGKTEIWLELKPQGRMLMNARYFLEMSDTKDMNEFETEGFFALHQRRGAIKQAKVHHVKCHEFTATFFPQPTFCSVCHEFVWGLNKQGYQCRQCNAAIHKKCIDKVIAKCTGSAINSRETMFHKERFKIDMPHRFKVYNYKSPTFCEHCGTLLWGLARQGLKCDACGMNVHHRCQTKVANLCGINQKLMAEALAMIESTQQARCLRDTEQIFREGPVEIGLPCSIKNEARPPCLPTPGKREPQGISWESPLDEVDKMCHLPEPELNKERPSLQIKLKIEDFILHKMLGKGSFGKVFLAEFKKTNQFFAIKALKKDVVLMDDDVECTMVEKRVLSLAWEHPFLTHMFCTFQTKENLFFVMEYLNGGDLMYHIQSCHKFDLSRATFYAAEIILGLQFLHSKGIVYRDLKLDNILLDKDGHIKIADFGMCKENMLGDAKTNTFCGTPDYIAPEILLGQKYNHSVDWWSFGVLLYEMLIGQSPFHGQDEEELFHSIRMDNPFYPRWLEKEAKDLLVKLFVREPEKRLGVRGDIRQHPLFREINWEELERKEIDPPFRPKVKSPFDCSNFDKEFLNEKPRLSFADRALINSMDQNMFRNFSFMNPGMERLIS
Method: as §1, §2, §3

[3] = Stability in gastric and intestinal simulated fluids at 37° C.; type: physicochemical
Method: Stability Assessments Stability of Cpd. Example No. 1 in Gastric and Intestinal Simulated Fluids at 37° C.:
Stability of compound Example No. 3
(Free form/acetate salt form) in gastric and intestinal simulated fluids at 37° C.: […]

[4] = Dog pharmacokinetics after oral administration of compound of example No. 1; type: in vivo, Beagle dogs; conditions: dog, blood
Method: A single dose of the compound of example 1 (3.0 mg/kg) was administered p.o. to 3 male Beagle dogs. Compound 1 was dosed as an aqueous suspension of the crystalline monohydrate form in Methylcellulose (0.5%): Tween 80 (1%) (90:10). Blood was taken in regular intervals by venipuncture, and the samples were analyzed for a period of up to 24 hours. The compounds of the examples 1, 2, and 3 were quantitatively assessed over time, and the results are tabulated below:
Key pharmacokinetic parameters (mean values±standard deviations (n=3) for 1, 2 and 3 after oral dosing of example No. 1.

SMILES: Cc1cccc2c(C3=C(c4nc(N5CCNC6(CC6)C5)cc5ccccc45)C(=O)NC3=O)c[nH]c12 [Example 3, 3-[3-(4,7-diaza-spiro[2.5]oct-7-yl)-isoquinolin-1-yl]-4-(7-methyl-1H-indol-3-yl)-pyrrole-2,5-dione]
- solubility ([1]; FaSSIF pH 6.5): 30 µg/mL (≈ 64.7 µM)
- solubility ([1]; FeSSIF pH 5.8): 280 µg/mL (≈ 604 µM)
- solubility ([1]; simulated gastric fluid, SGF pH 2): 120 µg/mL (≈ 259 µM)
- IC50 (PKC-alpha): 0.4 nM
- concentration at 0.5 h ([2]; po, fasted male Beagle dogs, example No. 3 mono acetate salt p.o. 100 mg/dog, 0.5 h): 936 nM
- concentration at 1 h ([2]; po, fasted male Beagle dogs, example No. 3 mono acetate salt p.o. 100 mg/dog, 1 h): 2160 nM
- concentration at 2 h ([2]; po, fasted male Beagle dogs, example No. 3 mono acetate salt p.o. 100 mg/dog, 2 h): 2550 nM
- concentration at 3 h ([2]; po, fasted male Beagle dogs, example No. 3 mono acetate salt p.o. 100 mg/dog, 3 h): 2000 nM
- concentration at 4 h ([2]; po, fasted male Beagle dogs, example No. 3 mono acetate salt p.o. 100 mg/dog, 4 h): 1900 nM
- concentration at 6 h ([2]; po, fasted male Beagle dogs, example No. 3 mono acetate salt p.o. 100 mg/dog, 6 h): 1490 nM
- concentration at 8 h ([2]; po, fasted male Beagle dogs, example No. 3 mono acetate salt p.o. 100 mg/dog, 8 h): 1240 nM
- concentration at 24 h ([2]; po, fasted male Beagle dogs, example No. 3 mono acetate salt p.o. 100 mg/dog, 24 h): 276 nM
- concentration at 32 h ([2]; po, fasted male Beagle dogs, example No. 3 mono acetate salt p.o. 100 mg/dog, 32 h): 116 nM
- concentration at 0.25 h ([2]; po, fasted male Beagle dogs, example No. 3 mono acetate salt, capsule p.o. 100 mg/dog, 0.25 h): 177 nM
- Tmax ([2]; male, Beagle, dog, 100 mg, range, after oral dosing of example No. 3 mono acetate salt to dogs): 30 to 120 min
- IC50 (PKC-theta): 0.2 nM
- Amount in Area % of compound example No. 3 ([3]; Acetate Salt, FaSSIF pH 6.5, 37° C., 0 hours): 100 Area %
- Amount in Area % of compound example No. 3 ([3]; Acetate Salt, FaSSIF pH 6.5, 37° C., 1 hours): 98.6 Area %
- Amount in Area % of compound example No. 3 ([3]; Acetate Salt, FaSSIF pH 6.5, 37° C., 2.5 hours): 98.7 Area %
- Amount in Area % of compound example No. 3 ([3]; Acetate Salt, FaSSIF pH 6.5, 37° C., 4 hours): 95.1 Area %
- Amount in Area % of compound example No. 3 ([3]; Acetate Salt, FaSSIF pH 6.5, 37° C., 7 hours): 88.5 Area %
- Amount in Area % of compound example No. 3 ([3]; Acetate Salt, FeSSIF pH 5.8, 37° C., 0 hours): 100 Area %
- Amount in Area % of compound example No. 3 ([3]; Acetate Salt, FeSSIF pH 5.8, 37° C., 1 hours): 99.1 Area %
- Amount in Area % of compound example No. 3 ([3]; Acetate Salt, FeSSIF pH 5.8, 37° C., 2.5 hours): 98.9 Area %
- Amount in Area % of compound example No. 3 ([3]; Acetate Salt, FeSSIF pH 5.8, 37° C., 4 hours): 98 Area %
- Amount in Area % of compound example No. 3 ([3]; Acetate Salt, FeSSIF pH 5.8, 37° C., 7 hours): 97.5 Area %
- Amount in Area % of compound example No. 3 ([3]; Acetate Salt, SGF pH 2, 37° C., 0 hours): 100 Area %
- Amount in Area % of compound example No. 3 ([3]; Acetate Salt, SGF pH 2, 37° C., 1 hours): 96.4 Area %
- Amount in Area % of compound example No. 3 ([3]; Acetate Salt, SGF pH 2, 37° C., 2.5 hours): 93.2 Area %
- Amount in Area % of compound example No. 3 ([3]; Acetate Salt, SGF pH 2, 37° C., 4 hours): 92.4 Area %
- Amount in Area % of compound example No. 3 ([3]; Acetate Salt, SGF pH 2, 37° C., 7 hours): 90.0 Area %
- Amount in Area % of compound example No. 3 ([3]; Free Form, FaSSIF pH 6.5, 37° C., 0 hours): 100 Area %
- Amount in Area % of compound example No. 3 ([3]; Free Form, FaSSIF pH 6.5, 37° C., 1 hours): 100 Area %
- Amount in Area % of compound example No. 3 ([3]; Free Form, FaSSIF pH 6.5, 37° C., 2.5 hours): 100 Area %
- Amount in Area % of compound example No. 3 ([3]; Free Form, FaSSIF pH 6.5, 37° C., 4 hours): 90.7 Area %
- Amount in Area % of compound example No. 3 ([3]; Free Form, FaSSIF pH 6.5, 37° C., 7 hours): 82.5 Area %
- Amount in Area % of compound example No. 3 ([3]; Free Form, FeSSIF pH 5.8, 37° C., 0 hours): 100 Area %
- Amount in Area % of compound example No. 3 ([3]; Free Form, FeSSIF pH 5.8, 37° C., 1 hours): 100 Area %
- Amount in Area % of compound example No. 3 ([3]; Free Form, FeSSIF pH 5.8, 37° C., 2.5 hours): 100 Area %
- Amount in Area % of compound example No. 3 ([3]; Free Form, FeSSIF pH 5.8, 37° C., 4 hours): 99.2 Area %
- Amount in Area % of compound example No. 3 ([3]; Free Form, FeSSIF pH 5.8, 37° C., 7 hours): 98.7 Area %
- Amount in Area % of compound example No. 3 ([3]; Free Form, SGF pH 2, 37° C., 0 hours): 98.8 Area %
- Amount in Area % of compound example No. 3 ([3]; Free Form, SGF pH 2, 37° C., 1 hours): 98.6 Area %
- Amount in Area % of compound example No. 3 ([3]; Free Form, SGF pH 2, 37° C., 2.5 hours): 98.1 Area %
- Amount in Area % of compound example No. 3 ([3]; Free Form, SGF pH 2, 37° C., 4 hours): 97.9 Area %
- Amount in Area % of compound example No. 3 ([3]; Free Form, SGF pH 2, 37° C., 7 hours): 97.9 Area %
- concentration at 0.083 h ([4]; po, male Beagle dogs, example 1 3.0 mg/kg p.o. (crystalline monohydrate suspension), 0.083 h): 15 nM
- concentration at 0.25 h ([4]; po, male Beagle dogs, example 1 3.0 mg/kg p.o., 0.25 h): 167 nM
- concentration at 0.5 h ([4]; po, male Beagle dogs, example 1 3.0 mg/kg p.o., 0.5 h): 757 nM
- concentration at 0.75 h ([4]; po, male Beagle dogs, example 1 3.0 mg/kg p.o., 0.75 h): 1200 nM
- concentration at 1 h ([4]; po, male Beagle dogs, example 1 3.0 mg/kg p.o., 1 h): 1310 nM
- concentration at 2 h ([4]; po, male Beagle dogs, example 1 3.0 mg/kg p.o., 2 h): 1120 nM
- concentration at 3 h ([4]; po, male Beagle dogs, example 1 3.0 mg/kg p.o., 3 h): 959 nM
- concentration at 4 h ([4]; po, male Beagle dogs, example 1 3.0 mg/kg p.o., 4 h): 762 nM
- concentration at 7 h ([4]; po, male Beagle dogs, example 1 3.0 mg/kg p.o., 7 h): 403 nM
- concentration at 24 h ([4]; po, male Beagle dogs, example 1 3.0 mg/kg p.o., 24 h): 67.9 nM
- Tmax ([4]; male, Beagle, 3 mg/kg, mean ± SD (n=3), after oral dosing of example No. 1 to dogs): 54 ± 6 min
